From ChEMBL document CHEMBL1130644, “Synthesis of C-ring aromatic taxoids and evaluation of their multi-drug resistance reversing activity” (1998) come the findings set out here.

Type in all cases: functional, Homo sapiens
Assay [1] is described as follows: Compound was evaluated for enhancing effect on vincristine accumulation in ovarian MDR cancer cells (2780AD) at concentration of 1.0 ug/mL.
Assay [2] can be described thus: Compound was evaluated for enhancing effect on vincristine accumulation in ovarian MDR cancer cells (2780AD) at concentration of 10 ug/mL.
A short description of assay [3]: 62 Compound was evaluated for enhancing effect on vincristine accumulation in ovarian MDR cancer cells (2780AD) at concentration of 1.0 ug/mL.

As to `CC1=C2[C@@H](Sc3ccccc3)[C@H](OCCOCc3ccccc3)c3cccc(O)c3[C@H](OCc3ccccc3)[C@](O)(CC1=O)C2(C)C`, the figures for the Activity in assay [1] and in assay [2] were 106% and 142%, respectively.
On the same counts, the results for `COc1cccc2c1[C@H](O)[C@]1(O)CC(=O)C(C)=C(C[C@@H]2OCCO)C1(C)C` are 111% and 124%.
Turning to `COc1cccc2c1[C@H](OCc1ccccc1)[C@]1(O)CC(=O)C(C)=C([C@@H](Sc3ccccc3)[C@@H]2OCCOCc2ccccc2)C1(C)C`, the Activity in assay [1] turned out to be 106%; in assay [2], 211%.
For `COc1cccc2c1[C@H](O)[C@]1(O)CC(=O)C(C)=C([C@@H](Sc3ccccc3)[C@@H]2OCCBr)C1(C)C`, in that order: 93% and 166%.
For `COc1cccc2c1[C@H](O)[C@]1(O)CC(=O)C(C)=C([C@@H](Sc3ccccc3)[C@@H]2OCCO)C1(C)C`, in that order: 112% and 171%.
With `COc1cccc2c1[C@H](O)[C@]1(O)CC(O)C(C)=C([C@@H](Sc3ccccc3)[C@@H]2OCCO)C1(C)C` (stereo partly specified), the Activity is reported as 109% in assay [3] and 144% in assay [2].
`COc1cccc2c1[C@H](O)[C@]1(O)CC(=O)C(C)=C([C@@H](Sc3ccccc3)[C@@H]2OCCOCc2ccccc2)C1(C)C`: the Activity was found to be 140% in assay [1] and 256% in assay [2].
In the case of `CC1=C2[C@@H](Sc3ccccc3)[C@H](OCCO)c3cccc(O)c3[C@H](OCc3ccccc3)[C@](O)(CC1=O)C2(C)C`, the figures for the Activity in assay [1] and in assay [2] were 238% and 569%, respectively.
